Results reported in article PMC11134331, “Cell-active small molecule inhibitors validate the SNM1A DNA repair nuclease as a cancer target” (Chemical Science, 2024).
Like-named read-outs stand apart in the source and are kept apart here.

Assays:
SNM1B = molecular target: T1, SNM1B (Homo sapiens, UniProt Q9H816); experiment: gel-based nuclease assay, SNM1B; assay type: biochemical; settings: 1 nM SNM1B
T1 construct: for the MBL and β-CASP domains of SNM1B (aa 1–335) into baculoviral expression vectors pFB-CT10HF-LIC; made in house; host or cells: Sf9 insect cells (baculovirus)
T1 sequence (Q9H816 1-335): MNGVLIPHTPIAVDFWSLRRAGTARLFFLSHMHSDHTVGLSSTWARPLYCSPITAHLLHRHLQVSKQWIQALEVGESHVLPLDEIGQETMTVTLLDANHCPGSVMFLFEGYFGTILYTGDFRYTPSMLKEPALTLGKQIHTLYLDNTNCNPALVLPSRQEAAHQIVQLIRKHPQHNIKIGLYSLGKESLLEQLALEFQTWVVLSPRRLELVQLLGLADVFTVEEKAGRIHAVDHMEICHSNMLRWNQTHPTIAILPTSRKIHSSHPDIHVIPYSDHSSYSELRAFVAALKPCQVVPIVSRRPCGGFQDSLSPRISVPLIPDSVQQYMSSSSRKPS
Excerpt: (§1) To validate the inhibition of SNM1A, SNM1B, and SNM1C observed in the fluorescence-based screening assays, we then performed gel-based assays using 3′ terminally-labelled oligonucleotide substrates that enable both quantitative and qualitative (visual) assessment of the pattern of inhibition, for a subset of compounds. Importantly, whereas the fluorescence-based assay measures a single hydrolytic event at the substrate terminus, the gel-based nuclease assay informs on the pattern of digestion of the entire 51-mer substrate DNA over time.
(§2) Standard exonuclease assays were carried out in a 10 μL final volume containing 20 mM HEPES-KOH, pH 7.5, 50 mM KCl, 0.5 mM TCEP, 10 mM MgCl2, 0.05% (v/v) Triton X-100, 5% (v/v) glycerol, and SNM1 proteins as indicated. Inhibitors were dissolved in DMSO and diluted immediately prior to the reaction in the above buffer. Inhibitors were serially diluted two-fold from 100 μM. The DMSO concentration was kept constant at 0.1% (v/v) in the final reaction mixture. Inhibitors were incubated with the indicated SNM1 enzyme for 10 minutes at room temperature; reactions were initiated by addition of 10 nM DNA substrate and incubated at 37 °C for 20 min. Reactions were quenched by addition of 5 μL stop solution (95% formamide, 10 mM EDTA, 0.25% (v/v) xylene cyanol, 0.25% (v/v) bromophenol blue) and heated at 95 °C for 3 min. Reactions were analysed by 20% denaturing polyacrylamide gel electrophoresis solution of 19 : 1 acrylamide:bis-acrylamide, BioRad and 7 M urea (Sigma Aldrich) in 1 × TBE (Tris-borate EDTA) buffer. Electrophoresis was carried out at 525 V for 75 minutes; gels were subsequently fixed for 60 minutes in a 50% (v/v) methanol, 10% (v/v) acetic acid solution, and dried at 80 °C for two hours under vacuum. Dried gels were exposed to a Kodak Phosphor imager screen and scanned using a Typhoon 9500 instrument (GE Healthcare), scanned images were quantified using ImageJ.
Suppl. Figure 10. Increasing concentrations (as indicated, in μM) of compounds incubated with 1 nM SNM1B or 2.5 nM SNM1C (room temperature, 10 min), before initiating nuclease reaction by addition of ssDNA (37 °C, 20 min). Products were analysed by 20% denaturing PAGE. Gels are representative versions from a minimum of three independent experimental repeats.
(1 picture or pasted object on this page, not shown here)

SNM1A = molecular target: T2, SNM1A (Homo sapiens, UniProt Q6PJP8); experiment: gel-based nuclease assay, SNM1A; assay type: biochemical; design: DNA encoding for the MBL and β-CASP domains of SNM1A (aa 676–1040) was cloned into the baculovirus transfer vector pFB-LIC-Bse; inferred from vector pFB-LIC-Bse and the IMAC purification; made in house; host or cells: Sf9 insect cells (baculovirus)
T2 sequence (Q6PJP8 676-1040): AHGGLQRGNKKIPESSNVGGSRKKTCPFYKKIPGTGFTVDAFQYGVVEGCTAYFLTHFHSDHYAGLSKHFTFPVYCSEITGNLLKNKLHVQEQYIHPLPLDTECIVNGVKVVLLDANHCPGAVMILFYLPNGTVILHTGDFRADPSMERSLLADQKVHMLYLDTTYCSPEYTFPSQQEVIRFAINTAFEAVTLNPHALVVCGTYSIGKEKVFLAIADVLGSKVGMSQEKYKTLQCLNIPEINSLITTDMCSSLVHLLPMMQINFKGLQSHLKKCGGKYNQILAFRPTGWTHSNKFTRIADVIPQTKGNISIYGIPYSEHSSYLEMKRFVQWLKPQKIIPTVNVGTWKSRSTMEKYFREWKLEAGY
Excerpt: as §1, §2

[1] = system: SNM1A- cells generated in U2OS background; experiment: clonogenic survival assay, SNM1A- U2OS cells; assay type: cell-based, human; settings: 50 μM compound
Protocol: Clonogenic assays were performed in 10 cm tissue culture dishes (for RPE-1 cells, U2OS cells and derived clones). Cells (1000 per dish) were seeded in complete media (10 mL) and allowed to attach overnight, then treated with cisplatin or cisplatin plus inhibitor for the times stated. Following treatments, cells were allowed to grow and form colonies for 10 days. Colonies formed were stained with Coomassie R250 (Sigma) and counted on a COLCount Colony Counter (Oxford Optronix). All experiments represent the mean (±SEM) of at least three biological repeats of duplicate dishes/flasks for each treatment.

`C[C@H](Nc1nc(NCc2ccco2)nc2ccc(Cl)cc12)C(=O)NO` [compound 19] was tested, and the “inhibition of SNM1B in gel-based assay” value (SNM1B) was “inhibits each of SNM1A–C”, the “inhibition of SNM1A in gel-based assay” value (SNM1A; 0.5 nM SNM1A) was “inhibits each of SNM1A–C” and the IC50 (SNM1A; Suppl. Figure 11C, three independent experiments, read-out: SNM1A IC50 estimated from densitometric analysis of gel based assays) was 7.6 µM. The IC50 (SNM1A; direct quantification of ratio between intact substrate and digestion product, read-out: SNM1A IC50 estimated from gel-based assay) was ~8 µM and the “effect on cisplatin sensitivity” value [1] was “similarly sensitive to cisplatin treatment in the presence or absence of 19”.
